Data as given in US20090048301A1 (IMCLONE SYSTEMS INCORPORATED, priority 2003, published 2009).
Like-named read-outs stand apart in the source and are kept apart here.

What was measured:
bovine tubulin = assay: In vitro tubulin polymerization assay (turbidity at 340 nm); format: biochemical; details: 10 μM compound, 30 minute data point, vs 1% DMSO control
Procedure, shortened: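 Percent inhibition derives from turbidity (340 nm) at 30 min relative to 1% DMSO controls, read every minute at 37° C. Polymerization mix: 3 mg/ml bovine tubulin, <3% MAPs, in PIPES pH 7 G-PEM with 1 mM GTP, 1 mM MgCl2, 5% glycerol; enhancers also detectable.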

[1] = tested on: A431 human cancer cell line; assay: Sulphorhodamine B (SRB) growth inhibition assay; format: cell-based; details: A-431, A431 cells, 48 hours, read-out: SRB Assay: μM required to inhibit tumor cell growth by 50% (GI50)
Description: The in vitro growth inhibition activity of the compounds was determined by the Sulphorhodamine B assay. (Skehan P, Storeng R, Scudiero D, Monks A, McMahon J, Vistica D, Warren J T, Bokesch H, Kenney S, Boyd M R. New colorimetric cytotoxicity assay for anticancer-drug screening. J Natl Cancer Inst 82, 1107-1112, 1990). Sulphorhodamine B binds to basic amino acids and stains proteins which can be eluted and detected spectrophotometically by measuring absorbance at 515 nm. The absorbance was indicative of the total protein content of the cells fixed to the walls of the plate well at a given time by trichloroacetic acid, which is a measure of the viable cell concentration.
The in vitro growth inhibition activity of the compounds was determined using a Sulphorhodamine B assay. See, Skehan et al., “New colorimetric cytotoxicity assay for anticancer-drug screening,” J. Natl. Cancer Inst., 82, 1107-1112, (1990). Sulphorhodamine B binds to basic amino acids and stains proteins which can be eluted and detected spectrophotometically by measuring absorbance at 515 nm. The absorbance indicates the total protein content of the cells fixed to the walls of the plate well at a given time by trichloroacetic acid, which is a measure of the viable cell concentration.
The reagents used in the assay can be purchased from commercial sources and include Sulphorhodamine B 0.4% (w/v) in 1% (v/v) acetic acid (Sigma Cat#S-1402); trichloroacetic acid 50% (w/v) in deionized water, working solution (Sigma Cat#T-9159); and trizma base (Tris) 10 mM working solution, pH 7.5 (Sigma Cat#T-7693).
The procedure was cared out over four days. In Day 1, the cells were seeded in a seed 10,000 cells/100 μL/well in 96 well plate in duplicates as per template. Also, seed cells in extra plate for time zero (To plate). Thereafter, the cells were incubated for 24 hours at 37° C. with 5% CO2.
On Day 2, the test compound was added to the cells at five log doses from 100 μM to 0.01 μM (Volume of addition=100 μL in 1% DMSO for all compound concentrations, Control treatment=1% DMSO).
The compounds were prepared by weighing the test compounds in 1.5 ml eppendorf tubes and calculating the volume of DMSO to be added to bring the concentration of the compound to 20 mM. Thereafter, a 20 mM stock was made and diluted by four 10 fold dilutions in DMSO to get 2, 0.2, 0.02 and 0.002 mM solutions. Each solution was diluted 100 times (10 μL to 1 ml medium) and a further addition to the culture plate (100 μL) to half the concentration of cells was made. The final well concentration for 20 mM stock was 100 μM and similarly with other test concentrations.
The cells were incubated for 48 hours at 37° C. with 5% CO2 and terminated by adding 50 μL of 50% cold trichloroacetic acid (10% to final). Thereafter, the cells were incubated for one hour at 4° C.
On Day 4, the cells were fixed to the wells by the addition of 50 μL of 50% cold trichloroacetic acid (10% to final) and incubated for 1 hour at 4° C. The supernatant was discarded by force inverting the plate into the sink followed by washing thrice with tap water and the plates are then air-dried. 100 μL SRB (0.4% in 1% acetic acid) was added to each well and the plates were incubated for 10 minutes at room temperature. Unbound dye was removed by force inverting the plate into the sink and washing thrice with 1% acetic acid. Thereafter, the plates were allowed to air dry.
Bound SRB was solubilized with 100 μL of 10 mM Tris, pH 7.4 and the absorbance was measured at a wavelength of 515 nm.
A sample set of calculations was performed as follows. The percentage growth was calculated by T-To/C-To X 100 if T>To and T-To/To X 100 if T<To, wherein T is Test OD (with compound), C is Control OD, To is Time Zero OD (cell growth at the time of drug addition). […]

[2] = tested on: A431, human epidermoid carcinoma cells; assay: Cell cycle analysis (FACS), mitotic arrest in G2/M; format: cell-based; details: read-out: FACS Assay: concentration required to achieve inhibition in FACS assay
Procedure, shortened: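 A431 cells, 500,000/well at treatment, exposed to compounds at 0.01–1 μM final (0.1% DMSO) for 24 h. Ethanol-fixed cells RNase-treated (1 μg/ml, 37° C., 15 min), stained with propidium iodide (50 μg/ml, 30 min, RT). DNA ploidy by flow cytometry; mitotic arrest scored as G2/M accumulation.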

SMILES	Tubulin Assay: percent inhibition at 10 μM based on 30 minute data (bovine tubulin) [%]	GI50 [1] [µM]	minimal effective concentration ([2]; Homo sapiens, A-431, 24 h) [µM]	minimal effective concentration ([2]; 24 hours) [µM]
COc1ccc(Nc2nnc(-c3cccnc3Nc3ccc4c(c3)OCO4)[nH]2)cc1 [Compound 8, Benzo[1,3]dioxol-5-yl-{3-[5-(4-methoxy-phenylamino)-4H-[1,2,4]triazol-3-yl]-pyridin-2-yl}-amine]	100	0.3	–	–
COc1ccc(OC)c(Nc2nnc(-c3cccnc3Nc3ccc4c(c3)OCO4)[nH]2)c1 [Compound 9, Benzo[1,3]dioxol-5-yl-{3-[5-(2,5-dimethoxy-phenylamino)-4H-[1,2,4]triazol-3-yl]-pyridin-2-yl}-amine]	47	25	–	–
COc1ccc(Nc2nnc(-c3cccnc3Nc3ccc4c(c3)OCO4)[nH]2)c(OC)c1 [Compound 10, Benzo[1,3]dioxol-5-yl-{3-[5-(2,4-dimethoxy-phenylamino)-4H-[1,2,4]triazol-3-yl]-pyridin-2-yl}-amine]	73	20	–	–
c1cnc(NCC2COCCO2)c(-c2nnc(Nc3ccc4c(c3)OCCO4)o2)c1 (stereo not shown) [Compound 203, {3-[5-(2,3-Dihydro-benzo[1,4]dioxin-6-ylamino)-[1,3,4]oxadiazol-2-yl]-pyridin-2-yl}-[1,4]dioxan-2-ylmethyl-amine]	69	–	0.1	–
c1coc(CNc2ncccc2-c2nnc(Nc3ccc4c(c3)OCCO4)o2)c1 [Compound 205, {3-[5-(2,3-Dihydro-benzo[1,4]dioxin-6-ylamino)-[1,3,4]oxadiazol-2-yl]-pyridin-2-yl}-furan-2-ylmethyl-amine]	56	–	–	1
c1cnc(NCc2ccncc2)c(-c2nnc(Nc3ccc4c(c3)OCCO4)o2)c1 [Compound 206, {3-[5-(2,3-Dihydro-benzo[1,4]dioxin-6-ylamino)-[1,3,4]oxadiazol-2-yl]-pyridin-2-yl}-pyridin-4-ylmethyl-amine]	94	–	0.025	–
c1ccc(CNc2ncccc2-c2nnc(Nc3ccc4c(c3)OCCO4)o2)nc1 [Compound 207, {3-[5-(2,3-Dihydro-benzo[1,4]dioxin-6-ylamino)-[1,3,4]oxadiazol-2-yl]-pyridin-2-yl}-pyridin-2-ylmethyl-amine]	87	–	0.025	–
c1cnc(OCc2ccc3c(c2)OCO3)c(-c2nnc(Nc3ccc4c(c3)OCCO4)o2)c1 [Compound 209, {5-[2-(Benzo[1,3]dioxol-5-ylmethoxy)-pyridin-3-yl]-[1,3,4]oxadiazol-2-yl}-(2,3-dihydro-benzo[1,4]dioxin-6-yl)-amine]	80	–	1	–
Brc1cnn(-c2ncccc2-c2nnc(Nc3ccc4c(c3)OCO4)o2)c1 [Compound 210, Benzo[1,3]dioxol-5-yl-{5-[2-(4-bromo-pyrazol-1-yl)-pyridin-3-yl]-[1,3,4]oxadiazol-2-yl}-amine]	87	–	1	–
c1cncc(CNc2ccccc2-c2nnc(Nc3ccc4c(c3)OCCO4)o2)c1 [Compound 216, (2,3-Dihydro-benzo[1,4]dioxin-6-yl)-(5-{2-[(pyridin-3-ylmethyl)-amino]-phenyl}-[1,3,4]oxadiazol-2-yl)-amine]	94	–	0.1	–
c1ccc(CNc2ccccc2-c2nnc(Nc3ccc4c(c3)OCCO4)o2)nc1 [Compound 217, (2,3-Dihydro-benzo[1,4]dioxin-6-yl)-(5-{2-[(pyridin-2-ylmethyl)-amino]-phenyl}-[1,3,4]oxadiazol-2-yl)-amine]	100	–	0.1	–
c1ccc(-c2nnc(Nc3ccc4c(c3)OCCO4)o2)c(NCc2ccc3c(c2)OCO3)c1 [Compound 218, (5-{2-[(Benzo[1,3]dioxol-5-ylmethyl)-amino]-phenyl}-[1,3,4]oxadiazol-2-yl)-(2,3-dihydro-benzo[1,4]dioxin-6-yl)-amine]	74	–	0.1	–
COc1cc(CNc2ccccc2-c2nnc(Nc3ccc4c(c3)OCCO4)o2)cc(OC)c1 [Compound 219, (2,3-Dihydro-benzo[1,4]dioxin-6-yl)-{5-[2-(3,5-dimethoxy-benzylamino)-phenyl]-[1,3,4]oxadiazol-2-yl}-amine]	63	–	0.1	–
c1ccc(-c2nnc(Nc3ccc4c(c3)OCO4)o2)c(NCc2cn[nH]c2)c1 [Compound 224, Benzo[1,3]dioxol-5-yl-(5-{2-[(1H-pyrazol-4-ylmethyl)-amino]-phenyl}-[1,3,4]oxadiazol-2-yl)-amine]	81	–	1	–
COc1cccc(S(=O)(=O)Nc2ccccc2-c2nnc(Nc3ccc4c(c3)OCO4)o2)c1 [Compound 237, N-{2-[5-(Benzo[1,3]dioxol-5-ylamino)-[1,3,4]oxadiazol-2-yl]-phenyl}-3-methoxy-benzenesulfonamide]	99	–	1	–
Nc1ccccc1-c1nnc(Nc2ccc3c(c2)OCCO3)o1 [Compound 241, [5-(2-Amino-phenyl)-[1,3,4]oxadiazol-2-yl]-(2,3-dihydro-benzo[1,4]dioxin-6-yl)-amine]	75	–	1	–
c1ccc(-c2cnc(Nc3ccc4c(c3)OCCO4)o2)c(NCc2ccc3c(c2)OCO3)c1 [Compound 244, (5-{2-[(Benzo[1,3]dioxol-5-ylmethyl)-amino]-phenyl}-oxazol-2-yl)-(2,3-dihydro-benzo[1,4]dioxin-6-yl)-amine]	96	–	1	–
COc1cc(CNc2ccccc2-c2cnc(Nc3ccc4c(c3)OCCO4)o2)cc(OC)c1 [Compound 246, (2,3-Dihydro-benzo[1,4]dioxin-6-yl)-{5-[2-(3,5-dimethoxy-benzylamino)-phenyl]-oxazol-2-yl}-amine]	72	–	1	–
COc1cccc(Nc2ncc(-c3ccccc3NCc3ccc4c(c3)OCO4)o2)c1 [Compound 249, (5-{2-[(Benzo[1,3]dioxol-5-ylmethyl)-amino]-phenyl}-oxazol-2-yl)-(3-methoxy-phenyl)-amine]	60	–	1	–
COc1cccc(Nc2ncc(-c3ccccc3NCc3ccc4c(c3)OCCO4)o2)c1 [Compound 250, (5-{2-[(2,3-Dihydro-benzo[1,4]dioxin-6-ylmethyl)-amino]-phenyl}-oxazol-2-yl)-(3-methoxy-phenyl)-amine]	60	–	1	–
